Experimental data taken from patent US6947790B2, “Neurocognitive function EEG measurement method and system” (priority 2000, dated 2005).
Read-outs that look alike come from different tables or passages of the source.

Key:
healthy subjects [1] = assay: Experiment 5: subjective scales after alprazolam
Procedure: (§1) Experiment: The motivation behind this experiment was to evaluate whether EEG and/or behavioral indices could be used to detect cognitive side effects of a common psychiatric medication. […] It acts primarily on the GABAergic system, enhancing the inhibitory effects of this neurotransmitter. […] It adversely affects memory functions and psychomotor performance following acute administration, and its CNS effects can be detected in EEG measures. […] The experiment was performed according to a double blind, fully counterbalanced design, and all participation was fully informed and voluntary.
(§2) They then participated in three sessions: a training session and two experimental sessions. In the initial session, following informed consent procedures, subjects were familiarized with the recording methods and apparatus, and given a sham (placebo) drug dose. They then practiced the tasks until performance levels reached asymptote. […] Each session consisted of a pre-drug baseline-recording interval, followed by five post-drug recording intervals extending to 5 hours after drug administration. In the pre-drug interval and in each of the post-drug intervals EEG was recorded while subjects performed computer-presented tasks and while they rested quietly. The computerized tasks included easy and difficult versions of a sustained attention working memory task, where difficulty was manipulated by varying working memory load. Subjective scales were also used to assess drowsiness, mood, and perceived drug effects. The entire procedure, including preparation time and rest breaks lasted approximately 7 hours. Transportation home was provided for the subjects at the end of each experimental session.

healthy subjects [2] = assay: Experiment 5: working memory task performance
Procedure: as §1, §2

healthy subjects [3] = assay: Experiment 5: resting and task-related EEG and ERP; type: in vivo, human
Procedure: as §1, §2

healthy subjects [4] = assay: Experiment 5: NCFC index; type: in vivo, human; details: FIG. 11
Text: The resulting function is structured such that improvement in cognitive function in response to some intervention results in a positive deviation of the index, and impairment in cognitive function in response to some intervention results in a negative deviation of the index. […] In the first and second periods following drug ingestion the change in index values were highly significant across the group of subjects (t(9)=−4.02, p<0.004 and t(9)=−3.54, p<0.007 for t1 and t2 respectively), with some recovery in the later test periods (p's<0.05 for the rest of the test session).

[5] = in vivo; cited from earlier work
healthy adults [6] = assay: Chronic AED administration study: NCFC; type: in vivo, human; details: one subject, after 30 days of chronic treatment, FIG. 14
Text: In Progress Study of Effects of Chronic AED Administration. Although their mechanisms of action are varied and incompletely understood, AEDs as a class tend to limit sustained repetitive firing of neurons by antagonizing mechanisms of excitation or by agonizing mechanisms of inhibition. It is likely that such effects have a measurable influence on task-related EEG or ERP parameters. Such biomarkers are being identified through exploratory analyses of data from subjects taking AEDs for 4 weeks. The study, which is being performed by Drs. F. Gilliam and K. Meador, is a randomized, double blind, crossover comparison of the cognitive and behavioral effects of chronic administration of the AEDs lamotrigine and topiramate in healthy adults. Lamotrigine and topiramate are newer AEDs that have been reported to differ in their cognitive side effects.
The study is designed such that subjects are randomized in a first treatment period to receive either lamotrigine or topiramate for 12 weeks (7 weeks of dose escalation followed by 4 weeks of maintenance therapy and then 1 week of tapering off the drug). […] In each test session, subjects have their EEG recorded from 8 scalp electrodes (positioned at AFz, F3, F4, C3, C4, Pz, PO3, PO4) and their EOG recorded from electrodes placed on the supraorbital ridge and outer canthus of each eye, while they perform the WM task and while they rest quietly.

[7] = Experiment 6: phenytoin blood serum levels; type: in vivo; details: human, oral, 10 mg/kg bodyweight, 5 hrs after 10 mg/kg bodyweight
healthy normal subjects [8] = assay: Experiment 6: subjective scales after phenytoin; type: in vivo, human
Procedure: Experiment: The motivation behind this experiment was to evaluate how EEG and behavioral indices might be used to detect mild cognitive side effects of neurological medications, such as anti-epileptic drugs (AEDs). […] The computerized tasks included a simple reaction time task and easy and difficult versions of the sustained attention WM task, in which difficulty was manipulated by varying WM load. Subjective scales were also administered to assess drowsiness, mood, and perceived drug effects. […] Transportation home was provided at the end of the sessions.

healthy normal subjects [9] = assay: Experiment 6: resting and task-related EEG and ERP; type: in vivo, human
Procedure: The computerized tasks included a simple reaction time task and easy and difficult versions of the sustained attention WM task, in which difficulty was manipulated by varying WM load. Subjective scales were also administered to assess drowsiness, mood, and perceived drug effects. […] Transportation home was provided at the end of the sessions. Neurophysiological Alertness: To examine whether there was any neurophysiological evidence for decreased alertness, the EEG data were processed to eliminate artifacts and to compute power spectra and ERPs in each test condition. […] These physiological changes are consistent with the subjective reports of increased drowsiness following phenytoin.

healthy normal subjects [10] = assay: Experiment 6: task performance; design: species or system human; details: in vivo
Procedure: The computerized tasks included a simple reaction time task and easy and difficult versions of the sustained attention WM task, in which difficulty was manipulated by varying WM load. Subjective scales were also administered to assess drowsiness, mood, and perceived drug effects. […] Transportation home was provided at the end of the sessions.

[11] = blood serum; cited from earlier work
healthy normal subjects [12] = assay: Experiment 6: NCFC index
Text: Neurocognitive Function Change Index: The hybrid multivariate function for assessing changes in neurocognitive function described in Experiment 2 was also applied to this dataset, computing degree of neurocognitive change from an average of the placebo test sessions. The resulting index scores were then computed as deviations from the pre-drug test administration index score to illustrate how neurocognitive function varied over the phenytoin test session.

healthy adults [13] = details: as reported for these AEDs; cited from earlier work

Cc1nnc2n1-c1ccc(Cl)cc1C(c1ccccc1)=NC2 [alprazolam]
Other subjective effects vs placebo (healthy subjects [1]; 1 mg alprazolam): significantly more sleepy, more “spacey/out of it”, and more clumsy
Visual analogue scale: feel the effects of the drug, vs placebo (healthy subjects [1]; 1 mg alprazolam): heightened sense that they could “feel the effects of the drug”
Onset of felt drug effects (healthy subjects [1]; after drug ingestion): 0.5 h
Peak of felt drug effects (healthy subjects [1]; after drug ingestion): 1.5 to 2 h
Time of largest effect on behavioral performance (healthy subjects [2]; after drug ingestion): 0.5 to 1 h
Accuracy in working memory task vs placebo (healthy subjects [2]; easy and difficult level): less accurate
Response speed in working memory task vs placebo (healthy subjects [2]; easy and difficult level): significantly slower
Time of behavior returning towards baseline levels (healthy subjects [2]; post drug ingestion): 3.5 to 4 h
P300 amplitude vs placebo (healthy subjects [3]; difficult task level): significantly reduced P300 amplitude
Resting beta power vs placebo (healthy subjects [3]; eyes closed state): highly significant increase in beta power
Resting theta power vs placebo (healthy subjects [3]; eyes closed state): did not affect theta power in the eyes closed state
Resting alpha power vs placebo (healthy subjects [3]; eyes open and eyes closed states): significantly reduced alpha power in both eyes open and eyes closed states
Resting beta power vs placebo (healthy subjects [3]; eyes open state): same pattern of enhancement after drug ingestion, but to a lesser extent than in the eyes closed state
Resting theta power vs placebo (healthy subjects [3]; eyes open state): significant decrease in theta power in the eyes open state
Task-related beta power vs placebo (healthy subjects [3]; in vivo): significantly larger on the alprazolam day than on the placebo day
Task-related frontal midline theta vs placebo (healthy subjects [3]; in vivo): significantly attenuated
Task-related slow and fast alpha signals vs placebo (healthy subjects [3]; in vivo): significantly attenuated
P300 amplitude vs placebo (healthy subjects [3]; low load task level and simple reaction time task): did not significantly differ between placebo and alprazolam conditions
Pharmacodynamic profile: onset of cognitive impairment (healthy subjects [4]): rapid and relatively severe
Tpeak [5]: 1 to 2 h
plasma half-life [5]: 6 to 16 h

Nc1nnc(-c2cccc(Cl)c2Cl)c(N)n1 [lamotrigine]
NCFC scores relative to pre-treatment baseline (healthy adults [6]): impaired neurocognitive function was observed in response to both drugs

O=C1NC(=O)C(c2ccccc2)(c2ccccc2)N1 [phenytoin]
concentration at 5 h ([7]; read-out: blood serum level range): 3500 to 13600 ng/mL
concentration at 5 h ([7]; read-out: mean blood serum level): 9000 ng/mL
Visual analogue scale: feel the effects of the drug, vs placebo (healthy normal subjects [8]; 10 mg/kg phenytoin): heightened sense that they could “feel the effects of the drug”
Time of strongest sensations (healthy normal subjects [8]; after drug administration): about 4 hours
Subjective sleepiness vs placebo (healthy normal subjects [8]; in vivo): marginally more sleepy
Attention-related enhancement of N160 response to target stimuli (healthy normal subjects [9]; easy level of the task): significantly reduced in the phenytoin condition
Resting alpha band power vs placebo (healthy normal subjects [9]; eyes-closed): decrease in power in the 9-11 Hz (alpha band) frequency range
Resting theta band power vs placebo (healthy normal subjects [9]; eyes-closed, parieto-occipital electrodes): small increase in power in the 3-6 Hz (theta band) frequency range
Effects on centroparietal P300 component (healthy normal subjects [9]; in vivo): heterogeneous
Difficulty-related enhancement of frontal midline theta signal (healthy normal subjects [9]; low load vs high load WM task): reduced the difficulty-related enhancement of the frontal midline theta signal
Accuracy and reaction time during task performance vs placebo (healthy normal subjects [10]): neither accuracy nor reaction time during task performance differed on average
therapeutic range [11]: 10 to 20 µg/mL
Pharmacodynamic profile: onset of cognitive impairment (healthy normal subjects [12]; FIG. 12): slower to develop and relatively mild
Period of acute impairment in individual subjects (healthy normal subjects [12]; following drug ingestion): 2 to 4 h
Average NCFC index scores (healthy normal subjects [12]; relative to pre-treatment baseline): tended to decline relative to the pre-treatment baseline interval

CC1(C)O[C@@H]2[C@@H](CO[C@@]3(COS(N)(=O)=O)OC(C)(C)O[C@@H]23)O1 [topiramate]
NCFC scores relative to pre-treatment baseline (healthy adults [6]): impaired neurocognitive function was observed in response to both drugs
Cognitive side effect profile (healthy adults [13]): relatively worse cognitive side effect profile than lamotrigine
